The values that follow come from patent US12251422B2, “Compositions and methods for treating neurological and other disorders” (Rush University Medical Center, priority 2018, dated 2025).

In experiment [1] the target is T1, interaction between TLR4 and MyD88 (Mus musculus, UniProt Q9QUK6).
T1 construct: endogenous in cells; host or cells: BV-2 microglial cells
T1 sequence (Q9QUK6 26-835): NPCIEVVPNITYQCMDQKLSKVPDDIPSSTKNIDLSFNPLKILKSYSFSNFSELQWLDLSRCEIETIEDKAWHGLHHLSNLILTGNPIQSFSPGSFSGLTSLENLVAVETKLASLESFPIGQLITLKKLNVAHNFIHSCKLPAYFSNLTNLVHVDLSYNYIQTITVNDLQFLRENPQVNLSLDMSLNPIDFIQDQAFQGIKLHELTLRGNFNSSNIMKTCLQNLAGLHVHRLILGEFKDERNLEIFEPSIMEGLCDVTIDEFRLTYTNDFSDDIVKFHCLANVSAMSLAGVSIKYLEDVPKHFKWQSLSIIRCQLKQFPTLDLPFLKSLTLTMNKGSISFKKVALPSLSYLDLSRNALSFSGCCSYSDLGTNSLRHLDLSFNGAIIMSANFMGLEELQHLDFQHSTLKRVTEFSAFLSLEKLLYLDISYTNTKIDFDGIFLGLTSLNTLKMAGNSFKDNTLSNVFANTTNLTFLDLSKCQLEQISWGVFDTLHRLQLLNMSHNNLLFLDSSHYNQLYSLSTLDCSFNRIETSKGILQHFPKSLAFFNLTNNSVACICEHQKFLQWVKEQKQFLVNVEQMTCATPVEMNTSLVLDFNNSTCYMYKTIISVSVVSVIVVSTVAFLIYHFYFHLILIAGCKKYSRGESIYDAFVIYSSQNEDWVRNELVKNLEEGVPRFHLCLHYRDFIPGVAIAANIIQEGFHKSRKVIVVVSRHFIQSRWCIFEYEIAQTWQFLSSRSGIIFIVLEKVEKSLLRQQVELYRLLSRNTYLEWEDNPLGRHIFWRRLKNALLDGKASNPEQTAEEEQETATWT
Description: MyD88 immunoprecipitation / TLR4 western blot in BV-2 microglial cells. The class given is cell-based. The note with it: BV-2 cells, peptide preincubated 1 h, LPS for 1 h, serum-free. On the procedure:
FIG. 3(A-L). Selective disruption of TLR2 and MyD88 interaction by wtTIDM. In silico analyses of interactions of wtTIDM with TLR1, TLR4, TLR5, TLR6, TLR7, and TLR9. A rigid body interaction analyses were performed in pydock in silico analysis tool. […] G) BV-2 microglial cells preincubated with WtTIDM and mTIDM peptides for 1 h were stimulated with 1 μM fibrillar Aβ1-42 under serum-free condition. After 1 h, cellular extracts were immunoprecipitated with anti-MyD88 antibody followed by western blot of immunoprecipitates for TLR2. As control, cellular extracts were immunoprecipitated with normal IgG. Input was also immunoblotted with TLR2 and MyD88. H) Bands were scanned and values (TLR2/Input) presented as relative to control (n=2 replicates/condition in 3 independent experiments). Results were analyzed by two-sample t-tests. I) BV-2 microglial cells preincubated with wtTIDM and mTIDM peptides for 1 h were stimulated with LPS under serum-free condition. After 1 h, cellular extracts were immunoprecipitated with anti-MyD88 antibody followed by western blot of immunoprecipitates for TLR4. As control, cellular extracts were immunoprecipitated with normal IgG. Input was also immunoblotted with TLR4 and My D88. […] Results were analyzed by two-sample t-tests. […] Results were analyzed by two-sample t-tests.
On the technique in general: In western blotting, separated proteins are transferred to a membrane and probed.

Another experiment deals with 5×FAD Tg mice. The experiment can be described thus: Novel object recognition test in 5×FAD Tg mice. Format: in vivo, mouse. To be noted: vs untreated Tg or mTIDM-treated Tg mice. The text has this: FIG. 6 (A-N). Intranasal delivery of wtTIDM, but not mTIDM, peptide inhibits neuronal apoptosis in vivo in the hippocampus and improves memory and learning in Tg mice. […] After 30 d of treatment, mice were sacrificed and hippocampal sections were double-labeled for TUNEL & NeuN (A). […] Hippocampal extracts of all groups of mice (n=4) were immunoblotted for cleaved caspase 3 (D). Actin was run as loading control. E) Bands were scanned and values (cleaved caspase 3/Actin) are presented as relative to non-Tg control. […] Protein levels of PSD-95. NR2A and GluR1 were monitored in hippocampal extracts by Western blot (F). Bands were scanned and values (G, PSD-95/Actin; H, NR2A/Actin; I, GluR1/Actin) are presented as relative to non-Tg control. […] Mice were tested for Barnes maze (J, latency; K, number of errors made) and T maze (L, number of positive turns; M, number of negative turns). Short-term memory was also monitored by novel object recognition test, which is represented by discrimination index (N). Eight mice (n=8) were used in each group and results were analyzed by one-way ANOVA.
Novel object recognition task was performed to monitor the short term memory as described by others (58) and us (57). Briefly, during training, mice were placed in a square novel box (20 inches long by 8 inches high) surrounded with infrared sensor. […]

Each structure is given as a SMILES string.

For the compound `CC[C@H](C)[C@H](NC(=O)[C@H](CCCCN)NC(=O)[C@@H](NC(=O)[C@H](CCC(N)=O)NC(=O)[C@H](CCCNC(=N)N)NC(=O)[C@@H](N)CC(=O)O)[C@@H](C)CC)C(=O)N[C@@H](Cc1c[nH]c2ccccc12)C(=O)N[C@@H](Cc1ccccc1)C(=O)N[C@@H](CCC(N)=O)C(=O)N[C@@H](CC(N)=O)C(=O)N[C@@H](CCCNC(=N)N)C(=O)N[C@@H](CCCNC(=N)N)C(=O)N[C@@H](CCSC)C(=O)N[C@@H](CCCCN)C(=O)N[C@@H](Cc1c[nH]c2ccccc12)C(=O)N[C@@H](CCCCN)C(=O)N[C@@H](CCCCN)C(=O)N1CCC[C@H]1C(=O)NCC(=O)N[C@@H](C)C(=O)N[C@@H](Cc1c[nH]cn1)C(=O)N[C@@H](CCC(N)=O)C(=O)N[C@@H](CCCCN)C(=O)O` [wtTIDM, drqikiwfqnrrmkwkkPGAHQK], the “effect on LPS-increased interaction between TLR4 and MyD88” value in experiment [1] is on record as “had no effect”. The “short-term memory, novel object recognition (discrimination index)” value in the experiment on 5×FAD Tg mice is listed as “significant improvement”.
